Data taken from patent publication US7253177B2, “Synthesis and antimalarial activity of pyrrolo[3,2-f]quinazoline-1,3-diamine derivatives” (United States of America as Represented by the Secretary of …, priority 2004, dated 2007).

Tests used:
[1] = Toxicity study in Aotus monkey; format: in vivo; conditions: for CBC parameters / body weight change / adverse effects (anorexia, vomiting, diarrhea, behavior): single oral 3 mg/kg; for adverse effects (anorexia, vomiting, diarrhea, behavior): 28 day observation period; for behavior, weight or blood chemistry changes: single oral dose 3 mg/kg
Experimental: (e). Toxicity Study in Aotus monkey: Protocol: Two malaria double cured Aotus weighing 1027-695 grams respectively received single dose of 3 mg/kg orally of the two compounds 2b and 3e. The monkeys were weighed and pre-bleed for CBC and Chemistry (ALT, BUN, Creatinine) determination, and again three, seven and 15 days post treatment. Signs of toxicity such as anorexia, vomiting, diarrhea or behavior changes were recorded. […] (f). Antimalarial Activity against P. falciparum in Aotus monkey: Protocol: Six (6) malaria naive Aotus lemurinus lemurinus (weigh 787-978 grms) were divided into two groups of two Aotus each plus two controls (MN13177 male and MN 13153 male) and infected with 5×10^6 P. falciparum FVO malaria parasites with 1 ml of an appropriate dilution in RPMI media intravenously on the saphenous vein. When their parasitemia reached 5×10^4 parasites/ul, treatment was started. Giemsa-stained thick blood smears were prepared daily with a prick in the ear marginal vein and parasites enumerated by the Earle and Perez method. Group 1 Aotus received 3e at 1 mg/kg once a day×three days. Group 2 Aotus received 2b at 1 mg/kg once a day×three days. The monkeys were weight and pre-bled for CBC and Chemistry (ALT, BUN, Creatinine) determination, and on day 4 post-treatmetne (PT). Bleedings for Pk determinations were carried out on day 1 PT at time 0, 1 hr, 7:30 hr and 24 hr PT. Group 1 (receiving 3e) animals cleared the parasitemias on day 3 post treatment (PT) and remained negative up to 100 days PT. In group 2 (receiving 2b), one animal cleared on day 3 PT and the other one on day 4 PT remaining negative up to 100 days PT. […] (g). Antimalarial Activity against P. vivax in Aotus monkey: Protocol: Fourteen (14) P. falciparum cured Aotus l. lemurinus monkeys (male and female) (weight 700-925 grms) were infected intravenously with 5×10^6 parasites of the P. vivax AMRU-1 strain diluted in RPMI media obtained from a donor and divided into two larger groups of 6 monkeys each (Group I and Group II) (2 monkeys per dose level), that received 3e and 6 monkeys (2 monkeys per dose level) that received 2b daily at 0.5, 1.0 and 3 mg/kg/day for a total of 3 days. Two monkeys were left has untreated controls. Treatment started when parasitemia reached 5,000 parasites×cc/mm on day 6 PI. Daily food intake was documented. Daily Giemsa-stained thick blood smears were prepared from a prick in the marginal ear vein and parasites enumerated by the Earle and Perez method. The animals were weighed at weekly intervals. Blood samples for Pk determination were collected at the following time points as follows: Day 0: CBC and chemistry panel (ALT. Creatinine and BUN); Day 4: CBC and chemistry Panel. CBC and chemistry panels were done the day prior to first dose and 24 hours after last dose and at weekly intervals thereafter. […] The other monkeys received 1 and 3 mg/kg of 3e remained negative until day 100 PT. In Group II, all monkeys except for one that received 3 mg/kg of 2b failed treatment and were retreated on day 3 PT with 3e at either 0.25, 0.5 or 1 mg/kg for three days. In the monkeys that received re-treatment at 0.25 mg/kg, one cleared on day 4 PT but needed to be treated with Mefloquine on day 8 PT due to a low platelet count. The other animals that had not been cleared by day 6 PT were treated with Mefloquine. […] P. vivax is known to be very drug resistant to antifolates. (h). Presumptive Causal Prophylactic Test against P. cynomolgi in Rhesus monkey: Protocol: […]

[2] = system: P. falciparum FVO; assay: Antimalarial activity against P. falciparum in Aotus monkey; format: in vivo, Plasmodium falciparum; conditions: 1 mg/kg once a day x three days, cured = parasitemia free for 100 days post treatment
Experimental: (e). Toxicity Study in Aotus monkey: Protocol: Two malaria double cured Aotus weighing 1027-695 grams respectively received single dose of 3 mg/kg orally of the two compounds 2b and 3e. The monkeys were weighed and pre-bleed for CBC and Chemistry (ALT, BUN, Creatinine) determination, and again three, seven and 15 days post treatment. Signs of toxicity such as anorexia, vomiting, diarrhea or behavior changes were recorded. […] (f). Antimalarial Activity against P. falciparum in Aotus monkey: Protocol: Six (6) malaria naive Aotus lemurinus lemurinus (weigh 787-978 grms) were divided into two groups of two Aotus each plus two controls (MN13177 male and MN 13153 male) and infected with 5×10^6 P. falciparum FVO malaria parasites with 1 ml of an appropriate dilution in RPMI media intravenously on the saphenous vein. When their parasitemia reached 5×10^4 parasites/ul, treatment was started. Giemsa-stained thick blood smears were prepared daily with a prick in the ear marginal vein and parasites enumerated by the Earle and Perez method. Group 1 Aotus received 3e at 1 mg/kg once a day×three days. Group 2 Aotus received 2b at 1 mg/kg once a day×three days. The monkeys were weight and pre-bled for CBC and Chemistry (ALT, BUN, Creatinine) determination, and on day 4 post-treatmetne (PT). Bleedings for Pk determinations were carried out on day 1 PT at time 0, 1 hr, 7:30 hr and 24 hr PT. […]

Row | Structure (SMILES) | CBC parameters [1] | body weight change [1] | adverse effects (anorexia, vomiting, diarrhea, behavior) [1] | behavior, weight or blood chemistry changes [1] | # Monkey Cured/# Monkey Used, P. falciparum [2]
1 | CCOC(=O)Nc1nc(NC(=O)OCC)c2c(ccc3c2ccn3Cc2ccccc2C(F)(F)F)n1 [Compound 2b] | remained within normal ranges | No significant changes in body weight | No adverse effects | no behavior, weight or blood chemistry changes | 2/2
2 | CC(=O)N(C(C)=O)c1nc(N(C(C)=O)C(C)=O)c2c(ccc3c2ccn3Cc2ccccc2C(F)(F)F)n1 [Compound 3e, 1,3-Bis(diacetylamino)-7-(2-trifluoromethyl)benzyl-7H-pyrrolo[3,2-f]quinazoline] | remained within normal ranges | No significant changes in body weight | No adverse effects | no behavior, weight or blood chemistry changes | 2/2
